Active and inactive are the calls of the source.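 Rule for the calls: active = mean EC50 below 100 µM; inactive = the rest.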

The assay deals with placental alkaline phosphatase (human). In words: effect of analogs on PLAP activity, SAR follow-up, selectivity assay for mouse IAP activator project, biochemical, human PLAP, set 2 (AID 588607). To be noted: purified PLAP, CDP-Star luminescence, 30 min.

Consider `CN(C)S(=O)(=O)c1cccc(NC(=S)NC(c2ccccc2)c2ccccc2)c1`, for which the IC50 (inhibition of PLAP activity) is 31.2 µM.
Regarding `COc1cccc(CCNC(=S)Nc2cccc(S(=O)(=O)N(C)C)c2)c1`, the IC50 (inhibition of PLAP activity) is 78.6 µM.
With `CCN(CC)c1ccc(C(=O)NC(=S)Nc2cc(S(=O)(=O)N3CCOCC3)ccc2-n2cncn2)cc1`, the EC50 is > 100 µM (inactive).
Turning to `O=C(NC(=S)Nc1cc(S(=O)(=O)N2CCOCC2)ccc1O)c1ccco1`, the IC50 (inhibition of PLAP activity) is 43.6 µM.
As to `Cc1ccc(S(=O)(=O)N(C)C)cc1NC(=S)NC(=O)C12CC3CC(CC(C3)C1)C2`, the EC50 was > 100 µM (inactive).
With `O=C(NC(=S)Nc1cc(S(=O)(=O)N2CCOCC2)ccc1N1CCOCC1)c1ccco1`, the EC50 is > 100 µM (inactive).
Regarding `O=S(=O)(c1ccc(NC(=S)NCCC(c2ccccc2)c2ccccc2)cc1)N1CCCC1`, the IC50 (inhibition of PLAP activity) is 42 µM.
Regarding `CN(C)S(=O)(=O)c1cccc(NC(=S)NCCc2ccc(Br)cc2)c1`, the IC50 (inhibition of PLAP activity) was 92 µM.
With `O=S(=O)(c1ccc(NC(=S)NCc2cccc(F)c2)cc1)N1CCCCC1`, the IC50 (inhibition of PLAP activity) is 78.1 µM.
For `O=S(=O)(c1ccc(NC(=S)NC(c2ccccc2)c2ccccc2)cc1)N1CCCC1`, the IC50 (inhibition of PLAP activity) is 22.1 µM.
`Cc1ccc(S(=O)(=O)N(C)C)cc1NC(=S)NCCCn1ccnc1`: the EC50 was > 100 µM (inactive).
In the case of `CN(C)S(=O)(=O)c1ccc(NC(=S)NCCc2cccc(O)c2)cc1`, the EC50 was > 100 µM (inactive).
Take `CC(CNC(=S)Nc1cccc(S(=O)(=O)N(C)C)c1)N1CCN(c2ccccc2)CC1` (stereo unspecified): the EC50 was > 100 µM (inactive).
`O=S(=O)(c1ccc(NC(=S)NC(c2ccccc2)c2ccccc2)cc1)N1CCCCC1`: the IC50 (inhibition of PLAP activity) was 16.6 µM.
As for `CN(C)S(=O)(=O)c1ccc(NC(=S)NCCC(c2ccccc2)c2ccccc2)cc1`, the IC50 (inhibition of PLAP activity) was 35 µM.
Still for that read-out and setting: with `COc1ccccc1CNC(=S)Nc1ccc(S(=O)(=O)N(C)C)cc1` the figure was 69.6 µM; with `CN(C)S(=O)(=O)c1cccc(NC(=S)NC(C)(C)CC(C)(C)C)c1`, 85.7 µM.
On to `CC1CC(NC(=S)Nc2cccc(S(=O)(=O)N(C)C)c2)CC(C)N1` (stereo unspecified), for which the EC50 is > 100 µM (inactive).
Turning to `COc1ccc(CCNC(=S)Nc2ccc(S(=O)(=O)N3CCCCC3)cc2)cc1OC`, the IC50 (inhibition of PLAP activity) is 81.9 µM.
`Cc1ccc(C)c(NC(=S)Nc2ccc(S(=O)(=O)N3CCCCC3)cc2)c1`: the EC50 was > 100 µM (inactive).
`CN(C)S(=O)(=O)c1cccc(NC(=S)NCCc2ccccc2)c1`: the IC50 (inhibition of PLAP activity) is 86.6 µM.
As to `CCN(CC)CCCNC(=S)Nc1cccc(S(=O)(=O)N(C)C)c1`, the EC50 is > 100 µM (inactive).
As for `Cc1ccc(CNC(=S)Nc2ccc(S(=O)(=O)N(C)C)cc2)cc1`, the IC50 (inhibition of PLAP activity) is 78.6 µM.
Turning to `COc1cccc(CNC(=S)Nc2ccc(S(=O)(=O)N(C)C)cc2)c1`, the IC50 (inhibition of PLAP activity) is 91 µM.
For `CCOc1cc(CCNC(=S)Nc2ccc(S(=O)(=O)N(C)C)cc2)ccc1OC`, the IC50 (inhibition of PLAP activity) was 89.9 µM.
Turning to `O=c1c2ccccc2[nH]c(=S)n1-c1cccc(S(=O)(=O)N2CCCC2)c1`, the EC50 was > 100 µM (inactive).
`CN(C)S(=O)(=O)c1ccc(NC(=S)NCCc2cccc(Br)c2)cc1`: the IC50 (inhibition of PLAP activity) is 57 µM.
`CN(C)S(=O)(=O)c1cccc(NC(=S)NCCC(=O)N2CCCC2)c1`: the EC50 was > 100 µM (inactive).
`CN(C)S(=O)(=O)c1ccc(NC(=S)NCCN2CCCC2)cc1`: the EC50 was > 100 µM (inactive).
On to `CN(C)S(=O)(=O)c1ccc(NC(=S)NC(c2ccccc2)c2ccccc2)cc1`, for which the IC50 (inhibition of PLAP activity) is 29 µM.
Still for that read-out and setting: the result for `Cc1ccccc1CNC(=S)Nc1ccc(S(=O)(=O)N(C)C)cc1` reads 71.8 µM; that for `O=S(=O)(c1ccc(NC(=S)NCCC(c2ccccc2)c2ccccc2)cc1)N1CCCCC1`, 38.6 µM.
For `O=C(CCc1ccccc1)NC(=S)Nc1cccc(S(=O)(=O)N2CCCC2)c1`, the EC50 is > 100 µM (inactive).
As for `CC1CCN(S(=O)(=O)c2ccc(NC(=S)NC(c3ccccc3)c3ccccc3)cc2)CC1`, the IC50 (inhibition of PLAP activity) is 47.2 µM.
Regarding `CN(C)CC(C)(C)CNC(=S)Nc1cccc(S(=O)(=O)N(C)C)c1`, the EC50 was > 100 µM (inactive).
Consider `CN(C)CCCNC(=S)Nc1cccc(S(=O)(=O)N(C)C)c1`, for which the EC50 was > 100 µM (inactive).
With `CCCCCCC(C)NC(=S)Nc1cc(S(=O)(=O)N(C)C)ccc1C` (stereo unspecified), the EC50 is > 100 µM (inactive).
Same read-out and setting: with `CN(CCc1ccccn1)C(=S)Nc1cccc(S(=O)(=O)N(C)C)c1` the figure was > 100 µM (inactive).
With `CN(C)S(=O)(=O)c1cccc(NC(=S)NCCc2cccc(Br)c2)c1`, the IC50 (inhibition of PLAP activity) is 73 µM.
As for `CN(C)S(=O)(=O)c1ccc(NC(=S)NCc2ccc(Cl)cc2)cc1`, the EC50 was > 100 µM (inactive).
Regarding `CN(C)S(=O)(=O)c1cccc(NC(=S)NCCc2cccc(F)c2)c1`, the EC50 was > 100 µM (inactive).
With `CCN(CC)S(=O)(=O)c1ccc(NC(=S)NCCC(c2ccccc2)c2ccccc2)cc1`, the IC50 (inhibition of PLAP activity) is 52.5 µM.
For `O=S(=O)(c1ccc(NC(=S)NCC(c2ccccc2)c2ccccc2)cc1)N1CCCC1`, the IC50 (inhibition of PLAP activity) is 19.5 µM.
As for `CN(CCc1ccccc1)C(=S)Nc1cccc(S(=O)(=O)N(C)C)c1`, the EC50 is > 100 µM (inactive).
The same measure, in the same setting: with `CN(C)S(=O)(=O)c1cccc(NC(=S)NCCCN2CCCC2=O)c1` the figure was > 100 µM (inactive).
For `CC1CCN(S(=O)(=O)c2ccc(NC(=S)NCCC(c3ccccc3)c3ccccc3)cc2)CC1`, the IC50 (inhibition of PLAP activity) was 31.9 µM.
For the compound `COc1ccc(CCNC(=S)Nc2ccc(S(=O)(=O)N3CCCCC3)cc2)cc1`, the IC50 (inhibition of PLAP activity) is 70.8 µM.
`Cc1ccc(CNC(=S)Nc2cccc(S(=O)(=O)N(C)C)c2)cc1`: the IC50 (inhibition of PLAP activity) was 82.8 µM.
Consider `CN(C)S(=O)(=O)c1ccc(NC(=S)NCC(c2ccccc2)c2ccccc2)cc1`, for which the IC50 (inhibition of PLAP activity) was 40.8 µM.
In the case of `O=S(=O)(c1ccc(NC(=S)NCC(c2ccccc2)c2ccccc2)cc1)N1CCCCC1`, the IC50 (inhibition of PLAP activity) was 29.6 µM.
As to `O=S(=O)(c1ccc(NC(=S)NCc2cccc(Cl)c2)cc1)N1CCCCC1`, the IC50 (inhibition of PLAP activity) is 84.9 µM.
As to `COc1ccc(CNC(=S)Nc2ccc(S(=O)(=O)N3CCCCC3)cc2)cc1OC`, the IC50 (inhibition of PLAP activity) is 68.6 µM.
Take `CN(C)S(=O)(=O)c1cccc(NC(=S)NCCc2cccc(O)c2)c1`: the EC50 is > 100 µM (inactive).
Regarding `CC(CCc1ccccc1)NC(=S)Nc1cccc(S(=O)(=O)N(C)C)c1` (stereo unspecified), the IC50 (inhibition of PLAP activity) was 69.2 µM.
Turning to `CN(C)S(=O)(=O)c1cccc(NC(=S)NCCc2ccc(F)cc2)c1`, the EC50 was > 100 µM (inactive).
`CN(C)S(=O)(=O)c1cccc(NC(=S)NCC(c2ccccc2)c2ccccc2)c1`: the IC50 (inhibition of PLAP activity) is 35.9 µM.
In the case of `CCN(CC)S(=O)(=O)c1ccc(NC(=S)NCC(c2ccccc2)c2ccccc2)cc1`, the IC50 (inhibition of PLAP activity) was 30.1 µM.
Regarding `CN(C)S(=O)(=O)c1ccc(NC(=S)NCCc2ccccc2)cc1`, the EC50 is > 100 µM (inactive).
For the compound `CN(C)S(=O)(=O)c1cccc(NC(=S)NCCCn2ccnc2)c1`, the EC50 was > 100 µM (inactive).
For `CN(C)S(=O)(=O)c1cccc(NC(=S)NCc2ccc(Cl)cc2)c1`, the EC50 is > 100 µM (inactive).
As for `CCN(CC)S(=O)(=O)c1ccc(NC(=S)NC(c2ccccc2)c2ccccc2)cc1`, the IC50 (inhibition of PLAP activity) is 26.3 µM.
Same read-out and setting: with `Cc1ccc(S(=O)(=O)N(C)C)cc1NC(=S)NC(C)CCCC(C)C` (stereo unspecified) the figure was 66.1 µM; with `CN(C)S(=O)(=O)c1cccc(NC(=S)NCCC(c2ccccc2)c2ccccc2)c1`, 93 µM.
As to `Cc1ccc(S(=O)(=O)N(C)C)cc1NC(=S)NC1CCN(Cc2ccccc2)CC1`, the EC50 is > 100 µM (inactive).
In the case of `Cc1ccc(S(=O)(=O)N(C)C)cc1NC(=S)NC(C)CCC(C)C` (stereo unspecified), the IC50 (inhibition of PLAP activity) was 78.5 µM.
As to `CN(C)S(=O)(=O)c1cccc(NC(=S)NCCN2CCCC2)c1`, the EC50 was > 100 µM (inactive).

The EC50 is the concentration that produces a half-maximal response.

The values are drawn from PubChem BioAssay AID588607 (Sanford-Burnham Center for Chemical Genomics, 2011).
